Data: paper PMC5055294 (PLoS ONE, 2016)

Legend:
FPR1 = assay: G protein BRET assay, negative control FPR1; format: cell-based; conditions: HEK293T, 100 nM chemerin, 1 minute
Method: (§1) G protein activation was assayed by BRET as previously described. Briefly, plasmids encoding G protein biosensors and receptors of interest were co-transfected into HEK293T cells by using the calcium phosphate method. Forty-eight hours after transfection, cells were washed twice with PBS, detached and resuspended in PBS plus 0.1% (w/v) glucose at room temperature. Cells were then distributed (80 μg of proteins per well) in a 96-well microplate (Optiplate, PerkinElmer). BRET^2 between RLuc8 and GFP10 was measured 1 min after addition of coelenterazine 400a/Deep blue C (5 μM, Gentaur). BRET readings were collected using an Infinite F200 reader (Tecan). The BRET signal was calculated as the ratio of emission of GFP10 (510–540 nm) to RLuc8 (370–450 nm).
(§2) As controls, cells expressing the α2c adrenergic receptor (Gαi/o) were stimulated with UK14304; cells expressing the AT1 angiotensin receptor (Gα11/q) were stimulated with angiotensin II; cells expressing the β2 adrenergic receptor (Gαs) were stimulated with isoproterenol; cells expressing thromboxane A2 receptor (Gα12/13) were stimulated with U46619. Data represent the mean ± S.E.M. of three to six independent experiments. Statistical significance was assessed using Tukey's test (***P < 0.0001).

CCRL2 [1] = assay: Intracellular calcium mobilization (aequorin), CCRL2; format: cell-based, human; conditions: CCRL2, CHO-K1, aequorin
Method: Calcium mobilization was measured by an aequorin-based assay as previously described. Briefly, CHO-K1 cells stably expressing apoaequorin and the receptors of interest were incubated for 4 h in the dark in the presence of 5 μM coelenterazine h (Promega) and then diluted before use to reach the appropriate cell density.
(§3) A. Calcium mobilization was measured in CHO-K1 cells using the aequorin-based functional assay. […] The results were normalized for the basal luminescence of the cells in absence of agonist (0%) and the maximal response obtained for each cell line with 10 μM ATP (100%). […] Data represent the mean ± S.E.M. of three independent experiments C. […] Detection of total ERK1/2 by Western blotting was used to ascertain that an equal amount of material was loaded in each lane (lower panel). A typical experiment out of three performed independently is shown.

CCRL2 [2] = assay: G protein BRET assay, CCRL2; format: cell-based, human; conditions: CCRL2, HEK293T; 100 nM chemerin, 1 minute
Method: as §1, §2

CCRL2 [3] = assay: ERK1/2 phosphorylation in CHO-K1 cells, CCRL2; format: cell-based, human; conditions: 300 nM chemerin, immunoblot
Method: CHO-K1 and MEF cells stably expressing receptors of interest were starved for 12–18 h in serum-free medium prior to stimulation. […] Whole cell lysates were resolved on 10% Tris/Tricine polyacrylamide gels and transferred to nitrocellulose membranes. Phosphorylated ERK1/2 and total ERK1/2 were detected by using rabbit polyclonal anti-phospho-ERK1/2 (Cell Signaling #4370, 1:1,000) and anti-ERK1/2 (Cell Signaling #4695S, 1:2,000) antibodies. Chemiluminescent detection was performed using ECL-Plus reagent (Perkin Elmer).
as §3

GPR33 = assay: G protein BRET assay, negative control GPR33; format: cell-based; conditions: HEK293T, 100 nM chemerin, 1 minute
Method: as §1, §2

GPR44/CRTH2 = assay: G protein BRET assay, negative control GPR44/CRTH2; format: cell-based; conditions: HEK293T, 100 nM chemerin, 1 minute
Method: as §1, §2

CMKLR1 = conditions: cited from earlier work
From the text: (§4) […]. CMKLR1 is coupled to the Gi/o family of G proteins and in cells ...

GPR1 [4] = conditions: ref [13], cited from earlier work
From the text: as §4

[5] = test system: leukocyte populations that express CMKLR1; conditions: ex vivo; dendritic cells, macrophages and natural killer cells; ref [1],[8]–[10]; cited from earlier work
From the text: as §4

CCRL2 [6] = conditions: cited from earlier work; for calcium mobilization and chemotaxis through CCRL2: ref [20], not confirmed by other groups [23]
From the text: as §4

CCRL2 [7] = assay: β-arrestin BRET recruitment assay, CCRL2; format: cell-based, human; conditions: β-arrestin1-Rluc or β-arrestin2-Rluc, CCRL2-Venus, HEK293T; 100 nM chemerin; 25°C
Method: β-arrestin recruitment was measured by a BRET proximity assay as previously described. Briefly, plasmids encoding Rluc-β-arrestin 2 and receptors fused to Venus were cotransfected into HEK293T cells by using the calcium phosphate method. Twenty-four hours post-transfection, cells were collected and seeded in 96-well microplates (165306, Nunc) and cultured for an additional 24 h. Cells were then rinsed once with PBS and incubated in PBS plus 0.1% (w/v) glucose at 25°C to slow down kinetics of arrestin recruitment and improve temporal resolution. BRET^1 between RLuc and YFP was measured after the addition of coelenterazine h (5 μM, Promega). […] The BRET signal was calculated as the ratio of emission of YFP (520–570 nm) to RLuc (370–480 nm).
Fig 6 Recruitment of β-arrestins by CMKLR1 and GPR1. […] Data represent the mean ± S.E.M. of three independent experiments.

CCRL2 [8] = assay: Radiolabelled chemerin internalization (acid-wash), CCRL2; format: cell-based, human; conditions: CCRL2, CHO-K1; incubation at 28°C
Method: Cell surface receptor was detected by flow cytometry using a saturating concentration of antibodies specific for CMKLR1 (●), GPR1 (◯) or CCRL2 (△). Results were normalized for the fluorescence of unstimulated cells (100%) and for background fluorescence (0%). Data represent the mean ± S.E.M. of three independent experiments. […] Then, cells were either left at 4°C or shifted to 28°C to allow receptor internalization. After 90 minutes, cells were acid-washed and the amount of radioactivity remaining associated with the cells was measured. Data represent the mean ± S.E.M. of three independent experiments.

CCRL2 [9] = target: T1, CCRL2 (human, UniProt O00421 1-344); assay: cell-based or functional assay
T1 sequence (looked up): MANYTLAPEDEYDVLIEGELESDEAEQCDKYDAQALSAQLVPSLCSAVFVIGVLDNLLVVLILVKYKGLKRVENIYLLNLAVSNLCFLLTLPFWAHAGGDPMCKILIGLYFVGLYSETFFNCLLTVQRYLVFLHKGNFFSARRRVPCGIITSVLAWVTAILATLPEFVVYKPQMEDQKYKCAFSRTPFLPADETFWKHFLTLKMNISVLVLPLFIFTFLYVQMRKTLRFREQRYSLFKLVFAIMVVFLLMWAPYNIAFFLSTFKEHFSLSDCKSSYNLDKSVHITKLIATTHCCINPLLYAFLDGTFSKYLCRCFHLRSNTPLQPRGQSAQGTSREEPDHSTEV

GPR1 [10] = target: T2, GPR1 (human, UniProt P46091 1-355); assay: radioligand binding; competition: CHO-K1 cells expressing the receptor with 0.1 nM [125I]-chemerin as tracer and increasing concentrations of unlabelled chemerin or chemerin 9; 50 mM HEPES pH 7.4, 1 mM CaCl2, 5 mM MgCl2, 250 mM sucrose, 0.5% BSA; 30 min at room temperature; filtration; conditions: one partner purified
T2 construct: GPR1, human chemerin receptor, expressed on CHO-K1 cells; The functional rows with G protein biosensors (HEK293T, transfected) and with MEF cells also use this molecule; source: CHO-K1, stably expressing (Clone 8), on cells
T2 sequence (looked up): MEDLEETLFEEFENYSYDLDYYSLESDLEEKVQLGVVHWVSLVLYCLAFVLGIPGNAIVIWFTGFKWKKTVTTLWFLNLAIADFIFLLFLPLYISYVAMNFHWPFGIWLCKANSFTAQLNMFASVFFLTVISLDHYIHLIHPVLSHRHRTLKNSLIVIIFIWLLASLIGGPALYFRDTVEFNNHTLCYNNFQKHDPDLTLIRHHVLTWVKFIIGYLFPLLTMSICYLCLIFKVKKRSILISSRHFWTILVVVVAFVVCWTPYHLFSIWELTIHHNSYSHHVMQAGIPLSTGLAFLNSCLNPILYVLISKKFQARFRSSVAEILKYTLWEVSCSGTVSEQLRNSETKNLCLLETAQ

CCRL2 [11] = target: T1, CCRL2; assay: as above; conditions: one partner purified

Chemerin: small chemotactic protein, natural ligand of CMKLR1; purchased from R&D Systems
G protein BRET signal (Gαi/o biosensors) (FPR1): generated signals of much weaker magnitude
calcium mobilization (CCRL2 [1]): generated no detectable signals
G protein activation (CCRL2 [2]): none of the G proteins tested were activated by GPR1 or CCRL2 upon chemerin stimulation
phosphorylation of ERK1/2 (CCRL2 [3]): generated no detectable signals
G protein BRET signal (Gαi/o biosensors) (GPR33): generated signals of much weaker magnitude
G protein BRET signal (Gαi/o biosensors) (GPR44/CRTH2): generated signals of much weaker magnitude
recruitment of β-arrestin2 to CMKLR1 (CMKLR1; introduction, no reference given): induces the recruitment of β-arrestin2 to CMKLR1
signaling in cells expressing CMKLR1 (CMKLR1; ref [7]): inhibits cAMP production and promotes phospholipase C activation, IP3 release, calcium mobilization as well as activation of PI3K and MAPK pathways
calcium mobilization (GPR1 [4]; GPR1, recombinant cell lines): activate weakly calcium mobilization in recombinant cell lines
down-regulation of GPR1 (GPR1 [4]): induces its rapid down-regulation
chemotaxis [5]: promotes chemotaxis of leukocyte populations that express CMKLR1
calcium mobilization or ligand internalization (CCRL2 [6]; CCRL2, chemerin, ref [11]): does not induce calcium mobilization or ligand internalization
β-arrestin recruitment (CCRL2 [7]): CCRL2 does not recruit β-arrestins

CCL2: chemokine
calcium mobilization and chemotaxis through CCRL2 (CCRL2 [6]): promotes calcium mobilization and chemotaxis

[^125I]-chemerin: R&DSystems, custom labelling performed by Perkin Elmer; tracer
radioactivity lost after acid-wash (chemerin internalization) (CCRL2 [8]): nearly all the radioactivity associated to cells expressing CCLR2 was lost after the acid-wash procedure

CCL7: chemokine
calcium mobilization and chemotaxis through CCRL2 (CCRL2 [6]): promotes calcium mobilization and chemotaxis

B1: CCL8: chemokine (protein, UniProt P80075 24-99, looked up)
C-C motif chemokine 8: QPDSVSIPITCCFNVINRKIPIQRLESYTRITNIQCPKEAVIFKTKRGKEVCADPKERWVRDSMKHLDQIFQNLKP
calcium mobilization and chemotaxis through CCRL2 (CCRL2 [6]): promotes calcium mobilization and chemotaxis

B2: CCL5: chemokine (protein, UniProt P13501 24-91, looked up)
C-C motif chemokine 5: SPYSSDTTPCCFAYIARPLPRAHIKEYFYTSGKCSNPAVVFVTRKNRQVCANPEKKWVREYINSLEMS
calcium mobilization and chemotaxis through CCRL2 (CCRL2 [6]): promotes calcium mobilization and chemotaxis

B3: Chemerin (unlabelled) (ligand, human, UniProt Q99969 21-157, looked up)
chain: ELTEAQRRGLQVALEEFHKHPPVQWAFQETSVESAVDTPFPAGIFVRLEFKLQQTSCRKRDWKKPECKVRPNGRKRKCLACIKLGSEDKVLGRLVHCPIETQVLREAEEHQETQCLRVQRAGEDPHSFYFPGQFAFS
notes: chemerin, human; also called full length chemerin; full size chemerin; source: bought: R&D Systems
t1/2 of down-regulation of the receptor from the cell surface (FACS, CHO-K1, 100 nM chemerin) (CCRL2 [9]): > 1 h
pIC50 (GPR1 [10]): 9.9
pIC50 (CCRL2 [11]): 9.1
